As a reminder, the IC50 is the concentration at which inhibition is half-maximal.

The structures appear in SMILES notation.

In this assay the target is T1, PI3Kδ (Homo sapiens, UniProt O00329).
T1 construct: made in house
T1 sequence (O00329 whole entry): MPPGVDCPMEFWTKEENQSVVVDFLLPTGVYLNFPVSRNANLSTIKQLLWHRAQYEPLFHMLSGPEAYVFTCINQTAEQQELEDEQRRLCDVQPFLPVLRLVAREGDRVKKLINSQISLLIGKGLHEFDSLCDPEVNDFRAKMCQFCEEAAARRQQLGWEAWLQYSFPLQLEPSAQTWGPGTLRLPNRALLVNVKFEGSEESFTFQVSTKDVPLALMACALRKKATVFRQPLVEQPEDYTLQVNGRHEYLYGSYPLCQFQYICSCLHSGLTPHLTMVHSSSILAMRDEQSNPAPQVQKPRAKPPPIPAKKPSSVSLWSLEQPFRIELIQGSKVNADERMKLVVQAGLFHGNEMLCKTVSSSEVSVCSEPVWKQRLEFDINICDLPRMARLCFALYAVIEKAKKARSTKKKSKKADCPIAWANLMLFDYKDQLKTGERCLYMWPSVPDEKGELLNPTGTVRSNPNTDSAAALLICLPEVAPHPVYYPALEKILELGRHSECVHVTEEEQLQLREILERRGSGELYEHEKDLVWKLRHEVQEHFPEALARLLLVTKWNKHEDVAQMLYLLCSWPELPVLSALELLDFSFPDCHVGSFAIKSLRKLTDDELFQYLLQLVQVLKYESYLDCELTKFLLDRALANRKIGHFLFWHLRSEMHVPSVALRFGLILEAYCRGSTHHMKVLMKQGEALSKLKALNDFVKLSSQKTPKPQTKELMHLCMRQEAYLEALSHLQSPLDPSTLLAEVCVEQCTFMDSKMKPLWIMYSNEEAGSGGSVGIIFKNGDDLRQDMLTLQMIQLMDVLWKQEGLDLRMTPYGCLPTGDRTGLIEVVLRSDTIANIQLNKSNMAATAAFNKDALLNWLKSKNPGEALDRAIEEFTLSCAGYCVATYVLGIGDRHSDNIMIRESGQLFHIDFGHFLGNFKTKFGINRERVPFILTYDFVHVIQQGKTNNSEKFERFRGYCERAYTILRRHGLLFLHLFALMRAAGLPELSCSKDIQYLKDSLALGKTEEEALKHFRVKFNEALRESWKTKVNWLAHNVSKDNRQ
T1 sequence (P27986 whole entry partner): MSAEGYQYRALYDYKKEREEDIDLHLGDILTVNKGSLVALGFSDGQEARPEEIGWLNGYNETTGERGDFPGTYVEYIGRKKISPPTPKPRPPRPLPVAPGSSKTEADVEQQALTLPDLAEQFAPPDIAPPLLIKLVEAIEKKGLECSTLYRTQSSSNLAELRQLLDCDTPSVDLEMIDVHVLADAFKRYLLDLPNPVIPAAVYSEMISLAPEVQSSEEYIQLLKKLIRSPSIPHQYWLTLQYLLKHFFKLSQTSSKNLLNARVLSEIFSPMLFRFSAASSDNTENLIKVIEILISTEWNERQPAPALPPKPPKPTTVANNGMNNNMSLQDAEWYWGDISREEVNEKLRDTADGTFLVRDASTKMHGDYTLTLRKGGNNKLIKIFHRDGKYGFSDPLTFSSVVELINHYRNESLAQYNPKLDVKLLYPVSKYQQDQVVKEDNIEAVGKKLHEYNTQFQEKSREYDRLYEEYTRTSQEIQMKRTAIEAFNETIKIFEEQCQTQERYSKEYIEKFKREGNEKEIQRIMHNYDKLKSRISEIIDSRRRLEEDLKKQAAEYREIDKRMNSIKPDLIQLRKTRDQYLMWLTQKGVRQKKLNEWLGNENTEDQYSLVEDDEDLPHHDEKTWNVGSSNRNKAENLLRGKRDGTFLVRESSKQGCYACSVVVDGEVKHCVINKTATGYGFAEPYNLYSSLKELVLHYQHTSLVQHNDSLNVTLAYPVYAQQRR
The assay can be described thus: Enzymatic activity of PI3K isoforms, TR-FRET assay (PIP3 formation). Format: biochemical. Particulars: PI3Kδ; TR-FRET, 2×Km ATP, 10 μM PIP2; read-out: IC50. From the text: Enzymatic Activity of PI3K Isoforms
The TR-FRET assay was used to monitor formation of the product 3,4,5-inositol triphosphate molecule (PIP3) as it competed with fluorescently labeled PIP3 for binding to the GRP-1 pleckstrin homology domain protein. An increase in […] product results in a decrease in TR-FRET signal as the labeled fluorophore is displaced from the GRP-1 protein binding site.
Class I PI3K isoforms were expressed and purified as heterodimeric recombinant proteins. All assay reagents and buffers for the TR-FRET assay were purchased from Millipore. […] After an assay reaction time of 30 minutes at 25° C., reactions were terminated with a final concentration of 10 mM EDTA, 10 nM labeled-PIP3, and 35 nM Europium labeled GRP-1 detector protein before reading TR-FRET on an Envision plate reader (Ex: 340 nm; Em: 615/665 nm; 100 μs delay and 500 μs read window).
Data are normalized based on a positive (1 uM wortmanin) and negative (DMSO) controls. The α, β, δ, and γ IC50 values were calculated from the fit of the dose-response curves to a four-parameter equation. IC50 are reported in units of nM.
IC50 values were obtained for all PI3K isoforms (α, β, δ, and γ), and Table 2 summarizes the IC50 data collected for PI3Kδ in this Example B1.
On the technique in general: In TR-FRET formats the signal depends on donor and acceptor labels being close together.
As to `CCC(Nc1nc(N)nc(N)c1C#N)c1nc2ccc(F)c(F)c2c(=O)n1-c1cc(F)cc(F)c1` (single isomer, unassigned) [Compound 30a], the IC50 was 10 to 50 nM.
Turning to `CC(Nc1nc(N)nc(N)c1C#N)c1nc2cccc(F)c2c(=O)n1-c1cc(F)cc(C#N)c1` (single isomer, unassigned) [Compound 32a], the IC50 is 10 to 50 nM.
Turning to `CC(Nc1nc(N)nc(N)c1C#N)c1nc2cccc(F)c2c(=O)n1-c1cc(F)cc(C(F)(F)F)c1` (single isomer, unassigned) [Compound 33a], the IC50 was over 50 nM.
With `CC(Nc1nc(N)nc(N)c1C#N)c1nc2c(C(F)(F)F)cccc2c(=O)n1-c1cc(F)cc(F)c1` (single isomer, unassigned) [Compound 34a] the figure was over 50 nM.
Then `Cc1cccc2c(=O)n(-c3cccc(C(F)(F)F)c3)c(C(C)Nc3nc(N)nc(N)c3C#N)nc12` (single isomer, unassigned) [Compound 39a], with 10 to 50 nM; and `CCC(Nc1nc(N)nc(N)c1C#N)c1nc2cccc(F)c2c(=O)n1-c1cccc(C(F)(F)F)c1` (single isomer, unassigned) [Compound 46a], with 10 to 50 nM; and `CC(Nc1nc(N)nc(N)c1C#N)c1nc2c(C(F)F)cccc2c(=O)n1-c1cc(F)cc(F)c1` (single isomer, unassigned) [Compound 57a], with 10 to 50 nM.
Regarding `CCC(Nc1nc(N)nc(N)c1C#N)c1nc2cccc(F)c2c(=O)n1-c1cc(F)cc(C(F)F)c1` (single isomer, unassigned) [Compound 65a], the IC50 is 10 to 50 nM.
For the compound `COc1cccc2c(=O)n(-c3cc(F)cc(F)c3)c(C(C)Nc3nc(N)nc(N)c3C#N)nc12` (single isomer, unassigned) [Compound 68a], the IC50 is over 50 nM.
Then `CCC(Nc1nc(N)nc(N)c1C#N)c1nc2c(F)cc(F)cc2c(=O)n1-c1cc(F)cc(F)c1` (single isomer, unassigned) [Compound 69a], with 10 to 50 nM; and `CC(Nc1nc(N)nc(N)c1C#N)c1nc2cc(F)c(F)cc2c(=O)n1-c1cc(F)cc(F)c1` (single isomer, unassigned) [Compound 79a], with 10 to 50 nM; and `Cc1ccc(F)c2c(=O)n(-c3cc(F)cc(C#N)c3)c(C(C)Nc3nc(N)nc(N)c3C#N)nc12` (single isomer, unassigned) [Compound 83a], with 10 to 50 nM.
With `CC(Nc1nc(N)nc(N)c1C#N)c1nc2ccc(Cl)c(F)c2c(=O)n1-c1cc(F)cc(F)c1` (single isomer, unassigned) [Compound 85a] the figure was over 50 nM; with `CCC(Nc1nc(N)nc(N)c1C#N)c1nc2ccc(Cl)c(F)c2c(=O)n1-c1cc(F)cc(F)c1` (single isomer, unassigned) [Compound 86a], over 50 nM.
Then `CC(Nc1nc(N)nc(N)c1C#N)c1nc2cccc(Cl)c2c(=O)n1-c1cc(C#N)cc(C#N)c1` (single isomer, unassigned) [Compound 87a], with over 50 nM; and `CC(Nc1nc(N)nc(N)c1C#N)c1nc2cccc(F)c2c(=O)n1-c1cc(C(F)(F)F)cc(C(F)(F)F)c1` (single isomer, unassigned) [Compound 88a], with over 50 nM.
With `CC(Nc1nc(N)nc(N)c1S(C)(=O)=O)c1nc2cccc(Cl)c2c(=O)n1-c1cc(F)cc(F)c1` (single isomer, unassigned) [Compound 94a], the IC50 was over 50 nM.
For `CCc1cccc2c(=O)n(-c3cc(F)cc(F)c3)c(C(C)Nc3nc(N)nc(N)c3C#N)nc12` (single isomer, unassigned) [Compound 103a], the IC50 was 10 to 50 nM.
For `CCC(Nc1nc(N)nc(N)c1Cl)c1nc2cccc(F)c2c(=O)n1-c1cc(F)cc(F)c1` (single isomer, unassigned) [Compound 105a], the IC50 is over 50 nM.
On to `COc1cccc(-n2c(C(C)Nc3nc(N)nc(N)c3C#N)nc3cccc(Cl)c3c2=O)c1C` (single isomer, unassigned) [Compound 109a-1], for which the IC50 lay in the range of 10 to 50 nM.

The values are drawn from patent publication US9029384B2, “Phosphatidylinositol 3-kinase inhibitors” (Gilead Calistoga LLC, priority 2012, dated 2015).
